The results in this text go back to ChEMBL document CHEMBL1122778, “A mechanism for the addition of multiple moles of glutamate by folylpolyglutamate synthetase” (J Med Chem, 1984).

The target of assay [1] is T1, Folylpolyglutamate synthase, mitochondrial (Mus musculus) (UniProt P48760).
T1 sequence (whole entry): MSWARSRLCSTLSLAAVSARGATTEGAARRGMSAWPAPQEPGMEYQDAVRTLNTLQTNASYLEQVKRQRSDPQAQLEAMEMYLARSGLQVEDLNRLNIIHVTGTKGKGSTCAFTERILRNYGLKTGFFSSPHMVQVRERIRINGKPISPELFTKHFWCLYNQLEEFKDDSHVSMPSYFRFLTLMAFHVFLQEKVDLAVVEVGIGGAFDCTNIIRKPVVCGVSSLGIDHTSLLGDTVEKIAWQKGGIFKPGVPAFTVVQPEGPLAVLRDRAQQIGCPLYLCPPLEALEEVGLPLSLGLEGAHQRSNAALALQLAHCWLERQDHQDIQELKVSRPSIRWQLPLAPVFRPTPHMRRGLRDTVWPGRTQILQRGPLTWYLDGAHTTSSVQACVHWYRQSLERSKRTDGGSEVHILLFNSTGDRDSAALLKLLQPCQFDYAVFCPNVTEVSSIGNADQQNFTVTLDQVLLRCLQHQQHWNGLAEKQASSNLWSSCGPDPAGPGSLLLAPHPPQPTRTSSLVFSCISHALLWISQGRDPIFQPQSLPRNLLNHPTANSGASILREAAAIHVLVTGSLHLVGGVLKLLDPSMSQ
Nature of the assay: Concentration required go get half the maximal reaction with Folyl-polyglutamate synthase.

The target in assay [2] is T1, Folylpolyglutamate synthase, mitochondrial (Mus musculus). Kind of assay: Compound was evaluated for reaction rate of compound in mouse liver Folyl-polyglutamate synthase ([3H]L-glutamate incorporated).
Assay [3] has the same target. Kind of assay: Compound was evaluated for reaction rate of compound in mouse liver Folyl-polyglutamate synthase for 1 hr at a conc of 500 uM ([3H]L-glutamate incorporated).

The compound `CN(Cc1cnc2nc(N)nc(N)c2n1)c1ccc(C(=O)N[C@@H](CCC(=O)O)C(=O)O)cc1` showed a Concentration in assay [1] of 47 µM. This compound came in with a Reaction rate in assay [2] of 1.71 nM/h.
Take `CN(Cc1cnc2nc(N)nc(N)c2n1)c1ccc(C(=O)NC(CCC(=O)NC(CCC(=O)O)C(=O)O)C(=O)O)cc1` (stereo not given): in assay [1], the Concentration came to 163 µM. Also, the Reaction rate in assay [3] turned out to be 0.7 nM/h.
Compound `CN(Cc1cnc2nc(N)nc(N)c2n1)c1ccc(C(=O)NC(CCC(=O)NC(CCC(=O)O)C(=O)O)C(=O)O)cc1.CN(Cc1cnc2nc(N)nc(N)c2n1)c1ccc(C(=O)NC(CCC(=O)O)C(=O)O)cc1` (stereo not given) registered a Reaction rate in assay [2] of 1.23 nM/h.
